According to patent US7598028B2, “Compositions and methods for detecting and treating prostate disorders” (The Regents of the University of Michigan, priority 2006, dated 2009):

Key:
[1] = tested on: LNCaP prostate epithelial cells; assay: Proliferation assay (cell counts), LNCaP; type: cell-based, human
Experimental: Proliferation assays. Cellular proliferation was assessed after plating cells at 50 000 cell/well in triplicate in six-well plates and counting cells after 24 and 96 h of incubation in complete media, serum-free media or serum-free prostate stromal fibroblast conditioned media, as described previously (Macoska J A, et al., (2004) Cancer Genet. Cytogenet. 154, 36-43; incorporated herein by reference in its entirety). Averages and standard deviations of cell number were calculated for each time point under each media condition. To assess the effects of exogenous CXCL12 on cellular proliferation, recombinant human SDF1 alpha/CXCL12 (R & D Systems, 350-NS) was added at the desired concentration in 1 mL SF HIE (or 1 mL SF HIE alone for control) to each well. The cells were counted at 24 and 96 h growth and re-fed at 48 and 72 h growth. Cell counts were normalized to 50 000 cells at 24 h to account for any plating discrepancies.
Proliferation Assays. Cellular proliferation was assessed after plating cells at 50,000 cell/well in triplicate in six well plates and counting cells after 24 and 96 hours of incubation as described previously (see, e.g., Macoska J A, et al., 2004 Cancer Genet. Cytogenet. 154, 36-43; incorporated herein by reference in its entirety). To assess the effects of exogenous CXCL12 on cellular proliferation, recombinant human SDF1 alpha/CXCL12 (R&D Systems, 350-NS) was added at the desired concentration in 1 ml SF HIE (or 1 ml SF HIE alone for control) to each well. The cells were re-fed at 48 and 72 hours growth and counted at 24 and 96 hours growth. Cell counts were normalized to 50,000 cells at 24 hours to account for any plating discrepancies. Averages and standard deviations of cell number were calculated for each time point under each media condition. Experiments utilizing U0126 were performed as above, except that cells were treated after plating for 2 hours with either DMSO (vehicle) or 5 uM U0126 before addition of CXCL12. Cells were maintained in media containing DMSO or U0126 for the entirety of the experiment. For the antibody blockade experiments, cells were plated at 10,000 cells per well in triplicate in 24 well dishes and pre-incubated with mouse IgG2aκ (BD Pharmingen 555571) or mouse anti-CXCR4 (BD Pharmingen 555971) at 1 ug/ml for 1 hour prior to CXCL12 addition. Cells were maintained in media containing appropriate antibodies for the entirety of the experiment, and cells were counted at 24 and 96 hours as above.
Proliferation Assays. Cellular proliferation was assessed after plating cells at 50,000 cell/well in triplicate in six well plates and counting cells after 24 and 96 hours of incubation as described previously (see, e.g., Begley L, et al., Genes Chromosomes Cancer. 2006 February; 45(2): 136-46; herein incorporated by reference in its entirety). To assess the effects of exogenous CXCL5 on cellular proliferation, recombinant human CXCL5 (R&D Systems, 254-X) was added at the desired concentration in 2 ml SF media (or 2 ml SF media alone for control) to each well. The cells were re-fed at 24 hours growth and counted at 24 and 96 hours growth. Cell counts were normalized to 50,000 cells at 24 hours to account for any plating discrepancies. Averages and standard deviations of cell number were calculated for each time point under each media condition. For the antibody blockade experiments, 10,000 cells per well were plated in triplicate in 24 well dishes and preincubated with mouse anti-human CXCR2 (Biosource AHR1532X) or mouse antihuman CXCR4 (BD Pharmingen 555971) at 1 ug/ml for 1 hour prior to CXCL5 addition. Cells were maintained in media containing appropriate antibodies for the entirety of the experiment and were counted at 24 and 96 hours as above.

EGR1 gene transcript = assay: Quantitative real-time PCR, EGR1 in LNCaP cells; type: cell-based, human
Experimental: Quantitative Real-Time PCR. All quantitative real-time assays were conducted with an Applied Biosystems 7900HT instrument and reagents. Cells were grown to 70% confluence in […] dishes prior to RNA purification using the Trizol reagent (Invitrogen Life Technologies). Experiments utilizing U0126 were performed as above, except that cells were treated with DMSO (vehicle) or 5 uM U0126 for 2 hours, then grown in the presence or absence of CXCL12. For all experiments, one microgram of RNA was reverse transcribed by use of Superscript III reverse transcriptase (Invitrogen, Carlsbad, Calif.). The resulting cDNA was diluted 1:100. Real-time PCR was performed by use of Assays on Demand (Applied BioSystems, Foster City, Calif.) according to the manufacturer's instructions, except that Real Time Ready with Rox passive dye (QBioGene, Carlsbad, Calif.) was used in place of TaqMan Universal PCR Master Mix. […] Cycle numbers to threshold were calculated by subtracting averaged control from averaged experimental values, and Fold Gene Expression was calculated by raising […]. […]
Quantitative Real-Time PCR. All quantitative real-time assays were conducted as previously described with an Applied Biosystems 7900HT instrument and reagents (see, e.g., Begley L A, et al., J Biol. Chem. 2007 Sep. 14; 282(37):26767-74; herein incorporated by reference in its entirety). […]

Compound | effect on proliferative response to CXCL12 ([1]; co-treatment with U0126 (5 uM), 50 pM CXCL12) | effect of U0126 on the effect of CXCL5 (anticipated) ([1]; stated as anticipated) | effect on CXCL12-stimulated EGR1 gene transcription (EGR1 gene transcript; 5 uM U0126 for 2 hours, then 50 pM CXCL12) | proliferation versus SF media alone ([1]; 0.001-1 nM CXCL5, p<0.05) | effect of CXCL5 on proliferation ([1]; CXCL5 1-10 pM) | cell proliferation compared to serum-free (SF HIE) media alone ([1]; add back of exogenous chemokine, 96 hours) | EGR1 transcript versus vehicle-treated cells (EGR1 gene transcript; only at the lowest CXCL5 concentration (10 pM) tested)
N#CC(=C(/N)Sc1ccccc1N)/C(C#N)=C(\N)Sc1ccccc1N [U0126] | not affected | will inhibit | ablates |  |  |  | 
CXCL5: recombinant human CXCL5 (R&D Systems, 254-X), CXC-type chemokine |  |  |  | significantly higher | did not stimulate | stimulate | 2- to 3 fold
